Consider two compounds from PMC3495945, “Org 214007-0: A Novel Non-Steroidal Selective Glucocorticoid Receptor Modulator with Full Anti-Inflammatory Properties and Improved Therapeutic Index” (PLoS ONE, 2012).

The structures appear in SMILES notation. Like-named read-outs stand apart in the source and are kept apart here.

Data set [1] can be described thus: Mouse fasting blood glucose. The format is in vivo. Conditions: oral daily 28 days; prednisolone 0.5 or 10 mg/kg/day, Org 214007-0 0.17 or 1.5 mg/kg/day; 9 hours fasting. How it is done: Eighteen hours after the last oral treatment and 9 hours after start of starvation, blood samples were taken from the tail vein and directly used for glucose measurements using “One touch Ultra” glucose meter from Lifescan EuroFlash (Lifescan Benelux Beerse, Belgium). The mouse MIDA study was performed as described previously by van Dijk et al., [52]. […] On the third day, mice were cannulated in the right jugular vein. After 7 days of treatment, mice were placed in small Plexiglas cages, which allowed collection of blood samples frequently in freely moving mice. […] During the experiment blood glucose was measured and blood spots for GCMS measurements were collected from tail tips just before the start of the infusion and at hourly intervals. […] Glucose and paracetamol-glucuronic acid (Par-GLcUa) were extracted from blood spot and urine filter papers, respectively, derivatised, and measured by GC-MS, essentially as described previously, [52]. […] From isotope dilution and infusion rates, the flux rates of the following metabolic pathways could be calculated: 1) de novo synthesis of G6P, 2) glucokinase, 3) glucose-6-phosphatase, 4) glycogenolysis, and 5) glycogen synthesis. […]

A short description of the next data set: Pharmacokinetics in mice. The format is in vivo, mouse. As to conditions: for half-life: read-out: T1/2 eli (converted); for C0: extrapolated to T=0, read-out: Cmax; for Tmax: female Balb/c mice. How it is done:
For each time-point 3 female Balb/c mice are used. Tmax = Time of maximum observed concentration (in case of i.v. administration Tmax = 0 h); time is expressed in hours (h). Cmax = concentration corresponding to Tmax and expressed in nmol/ml, for i.v. dosing Cmax is extrapolated to T=0. T 1/2 eli(mination) (terminal half-life) = ln(2)/λz expressed in h(ours). AUClast = Area under the curve from the time of dosing (Dosing-time) to the last measurable concentration. AUCinf = predicted Area Under the Curve from the time of dosing extrapolated to infinity and expressed in “h*nmol/ml”. Vz = Volume of distribution based on the terminal phase = Dose / λz* AUCinf and expressed inL/kg. Cl = total body clearance = Dose / AUCinf and expressed in L/h/kg. MRTinf = mean residence time (MRT) extrapolated to infinity for non-infusion models, expressed in h. Vss = gives an estimate of the volume of distribution at steady-state and is expressed in L/kg. […] The bioavailability is expressed in %. i.v. = intraveneously, p.o. = per oral

Data set [2] concerns murine collagen-induced arthritis (CIA) model. Conditions: for disease score (arthritis score): oral, once daily 3 weeks, therapeutic.
Protocol: At day 0 mice were immunized at the base of the tail with 100 μg bovine type II collagen (UMC Nijmegen, The Netherlands) in Complete Freund's Adjuvant (CFA, Difco) enriched with 2 mg/ml Mycobacterium tuberculosis H37RA (Difco). At day 21 mice were boosted by an i.p. injection of 100 μg bovine type II collagen dissolved in saline. After disease onset, mice with an arthritis score ranging from 0.25 to 1.25 were divided into matched groups (n = 12). […] The clinical severity of arthritis (arthritis score) was graded and scored as described [51]. To assess the effects of treatments, the area under the curve (AUC) of arthritis score (subtracting baseline AUC of arthritis score on day 0) was used. One day after the final treatment animals were sacrificed and the knee and ankle joints were imaged using a Faxitron X-ray, Modl MX-20 digital imaging system and analysed using Specimen (Version 2.0.1). The bone destruction was scored on a scale of 0–5 as described previously [51]. The cumulative scores of 2 joints (right ankle and knee) were used as radiological scores. From H&H-stained sections, articular cartilage destruction and inflammatory infiltrate in the right knee joint were scored on a scale of 0–3. The whole study was carried out in a blinded fashion. Statistical analysis was performed using one-way ANOVA.
Data set [3] concerns the target T1, recombinant human glucocorticoid receptor (GR) (Homo sapiens, UniProt P04150).
T1 construct: purchased Panvera P2816
Nature of the data set: Glucocorticoid receptor fluorescence polarisation competitor binding assay. As to conditions: fluorescence polarization competitor binding; mean (±SD); read-out: Ki, competitive binding. The source says: (for more detailed information see Supportive Information) (SI text).
For orientation: Fluorescence polarisation rises when a labelled molecule tumbles more slowly, as on binding a larger partner.

The mark [4] stands for this setting: female, Balb/c, mouse, in vivo, iv, 10 umol/kg, 10 μmol/kg i.v.
Where [5] appears, read: female, Balb/c, mouse, in vivo, po, 20 umol/kg, 20 μmol/kg p.o.
Where [6] appears, read: female, Balb/c, mouse, in vivo, iv, 4 umol/kg, 4 μmol/kg i.v.
[7] abbreviates: female, Balb/c, mouse, in vivo, po, 10 umol/kg, 10 μmol/kg p.o.

T1 sequence (P04150 whole entry): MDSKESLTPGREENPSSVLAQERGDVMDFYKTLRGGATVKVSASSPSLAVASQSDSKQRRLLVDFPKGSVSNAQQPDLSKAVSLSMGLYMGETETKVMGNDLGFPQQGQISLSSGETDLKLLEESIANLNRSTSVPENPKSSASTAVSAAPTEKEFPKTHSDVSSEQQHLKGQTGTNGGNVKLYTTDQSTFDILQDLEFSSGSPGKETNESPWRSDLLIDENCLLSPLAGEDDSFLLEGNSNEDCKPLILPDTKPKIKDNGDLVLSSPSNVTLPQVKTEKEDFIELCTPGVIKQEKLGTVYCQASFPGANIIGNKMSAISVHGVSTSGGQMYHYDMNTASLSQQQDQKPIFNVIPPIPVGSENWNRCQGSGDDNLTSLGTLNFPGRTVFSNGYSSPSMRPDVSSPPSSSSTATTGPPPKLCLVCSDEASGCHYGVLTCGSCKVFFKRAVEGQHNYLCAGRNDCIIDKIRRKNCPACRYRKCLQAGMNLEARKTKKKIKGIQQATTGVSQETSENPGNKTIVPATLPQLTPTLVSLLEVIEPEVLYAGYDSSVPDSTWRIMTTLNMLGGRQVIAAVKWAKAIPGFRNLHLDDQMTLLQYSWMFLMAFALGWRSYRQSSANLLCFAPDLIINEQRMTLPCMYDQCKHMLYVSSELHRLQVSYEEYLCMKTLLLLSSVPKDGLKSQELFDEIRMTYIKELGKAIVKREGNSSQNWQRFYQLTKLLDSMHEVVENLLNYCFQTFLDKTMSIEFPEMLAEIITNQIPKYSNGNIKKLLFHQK

Regarding `C[C@]12C=CC(=O)C=C1CC[C@@H]1[C@@H]2[C@@H](O)C[C@@]2(C)[C@H]1CC[C@]2(O)C(=O)CO` [prednisolone, reference compound], the “fasting blood glucose levels vs vehicle” value in data set [1] is recorded as “significantly elevated”. In “Pharmacokinetics in mice” (20 μmol/kg p.o.), this compound registered a Cl of 30 mL/min/kg and a Vz of 1.2 L/kg. In the data set “Pharmacokinetics in mice” (setting [4]), this compound had an AUC(0-inf) of 7.1 µM·h, an AUC(0-t) of 7.1 µM·h, a mean residence time (MRT inf) of 24 min and a clearance of 23.3 mL/min/kg. Besides, in “Pharmacokinetics in mice” (setting [4]), the half-life is 15.6 min. Further, the Vd in “Pharmacokinetics in mice” (female, Balb/c, mouse, in vivo, iv, 10 umol/kg, 10 μmol/kg i.v., read-out: Vss) amounted to 0.5 L/kg. For the same compound, the C0 in the data set “Pharmacokinetics in mice” (female, Balb/c, mouse, in vivo, iv, 10 μmol/kg i.v.) is 18 µM. Also, in “Pharmacokinetics in mice” (setting [5]), the AUC(0-inf) turned out to be 11 µM·h, the exposure AUC(0-t) was 11 µM·h, the highest level (Cmax) was 11.5 µM and the MRT inf amounted to 48 min. Also, in the data set “Pharmacokinetics in mice” (setting [5]), the half-life was 24 min. In addition, in “Pharmacokinetics in mice” (mouse, in vivo, po, 20 umol/kg, 20 μmol/kg p.o.), the time to peak (Tmax) worked out at 18 min. For the same compound, in data set [2], the “disease score (arthritis score)” value is “dose-dependent reduction”.
On to `Cc1nnsc1C(=O)N[C@H]1CCN2c3ccc(C#N)cc3[C@@H](C)c3ccccc3[C@@H]2C1` [Org 214007-0], for which, in data set [3], the inhibition constant (Ki) came to 2.2 nM. For the same compound, in data set [1], the “fasting blood glucose levels vs vehicle” value is recorded as “not affected”. In “Pharmacokinetics in mice” (10 μmol/kg p.o.), this compound gave a Cl of 6.7 mL/min/kg and a Vz of 3.2 L/kg. In “Pharmacokinetics in mice” (setting [6]), this compound gave an AUC(0-inf) of 10.8 µM·h, an area under the curve AUC(0-t) of 10.1 µM·h, a mean residence time MRT inf of 474 min and a clearance of 6.67 mL/min/kg. Besides, the half-life in “Pharmacokinetics in mice” (setting [6]) was 384 min. The Vd in the data set “Pharmacokinetics in mice” (female, Balb/c, mouse, in vivo, iv, 4 umol/kg, 4 μmol/kg i.v., read-out: Vss) was 2.9 L/kg. In addition, in “Pharmacokinetics in mice” (female, Balb/c, mouse, in vivo, iv, 4 umol/kg, 4 μmol/kg i.v., read-out: Vz), the Vd stood at 3.4 L/kg. Besides, the C0 in the data set “Pharmacokinetics in mice” (female, Balb/c, mouse, in vivo, iv, 4 μmol/kg i.v.) is 2.19 µM. In the data set “Pharmacokinetics in mice” (setting [7]), this compound had an AUC(0-inf) of 24.2 µM·h, an AUC(0-t) of 23.2 µM·h, a Cmax of 2.12 µM and an MRT inf of 426 min. Besides, the half-life in “Pharmacokinetics in mice” (setting [7]) was 318 min. Also, in “Pharmacokinetics in mice” (female, Balb/c, mouse, in vivo, po, 10 umol/kg, 10 μmol/kg p.o., read-out: F (% bioavailability)), the bioavailability amounted to 89.7%. Besides, the Tmax in the data set “Pharmacokinetics in mice” (mouse, in vivo, po, 10 umol/kg, 10 μmol/kg p.o.) was 30 min. Besides, the disease symptoms entry in data set [2] (1.5 mg/kg/day oral) was “total suppression”. Moreover, the “bone damage by X-ray on knees and paws” value in data set [2] (0.5 and 1.5 mg/kg/day, end of study) is “significant reduction”. Also, the “potency relative to prednisolone” value in data set [2] (CIA, oral once daily) is reported as “about 3 fold”. The “disease score (arthritis score)” value in data set [2] is listed as “dose-dependent reduction”. For the same compound, the “histopathology of knee joints: inflammatory infiltrates, cartilage destruction, bone apposition” value in data set [2] (two highest doses (0.5 and 1.5 mg/kg/day)) is reported as “significant reduction”.

The term AUC(0-inf) denotes the area under the concentration-time curve extrapolated to infinity. The term AUC(0-t) denotes the area under the concentration-time curve up to a stated or last time point. Lower therefore signals low exposure. What is called MRT inf is the average time that molecules of a dose stay in the body. In general, clearance refers to the rate of elimination divided by the concentration. High values mean a high capacity for elimination, low ones a low capacity for elimination. For orientation: Cmax means the peak of the concentration-time curve. The term Tmax denotes the time at which the peak concentration occurs. Usually Ki stands for the dissociation constant of the complex between target and ligand, obtained from inhibition or displacement. What is called bioavailability is dose-corrected exposure relative to a reference, in per cent.
